# According to paper PMC4566129, “Factors Governing P-Glycoprotein-Mediated Drug–Drug Interactions at the Blood–Brain Barrier Measured with Positron Emission Tomography” (Molecular Pharmaceutics, 2015):
# Where two headings read alike, the source gives them in different places. Marks after values point to notes of the source that are not given here.
# Key:
# Abcb1a [1] = target: T1, Abcb1a (Mus musculus, UniProt P21447); assay: Bidirectional transport assay in Abcb1a-transfected LLC cells (LLC-Abcb1a) without/with tariquidar; conditions: for IC50: normalized TR over 6 h, estimated by sigmoidal fit
# Description: LLC-PK1 cells transduced with human MDR1 (LLC-ABCB1) or murine Mdr1a (LLC-Abcb1a) were kindly provided by Prof. P. Borst and Dr. A. Schinkel (The Netherlands Cancer Institute, Amsterdam, The Netherlands).
# (§1) Tariquidar or solvent was added to both compartments. […] To determine membrane integrity, transepithelial electrical resistance (TEER) and, in representative wells, [^14C]mannitol diffusion were measured with criteria for exclusion described earlier.[27]
# (§2) Apparent substrate permeability (Papp) from the basolateral to the apical compartment (b–A) and vice versa (a–B) was calculated using the following equation: [drawing 1] where dQ/dt (disintegration/min) is the permeability rate of the substrate into the sample compartment, A the growth area of the monolayer, and C0 the initial substrate concentration in the donor compartment. The transport ratio (TR) was calculated by dividing Papp(b–A) by Papp(a–B). […] With Prism6 software (GraphPad Software, La Jolla, CA, USA) a sigmoidal model with variable slope was used to analyze concentration–response relationships by nonlinear regression.
# LLC wild-type cells = LLC wild-type cells (data not shown)
# Description: as §1, §2
# ABCB1 [2] = target: T2, ABCB1 (Homo sapiens, UniProt P08183)
# Abcb1a [3] = target: T1, Abcb1a; assay: PET imaging of radiotracer brain distribution (Kb,brain) in C57BL/6N wild-type, Abcb1a/1b(−/−) and Abcb1a/1b(+/−) mice and tariquidar concentration–response
# Description: (§3) Animal respiratory rate and body temperature were constantly monitored (SA Instruments Inc., Stony Brook, NY, USA), and the isoflurane level was adjusted (1.5–2% in oxygen) to achieve a constant and sufficient depth of anesthesia. Anesthesia was maintained for the whole pretreatment and imaging period. Following administration, anatomical magnetic resonance imaging (MRI) was performed on a 1 T benchtop MRI (ICON, Bruker BioSpin GmbH, Ettlingen, Germany) using a modified 3D T1-weighted gradient echo sequence (T1-FLASH) and the following imaging parameters: echo time (TE) = 4.7 ms; repetition time (TR) = 27 ms; flip angle (FA) = 25°; field of view (FOV) = 7.6 × 2.6 × 2.4 cm; matrix = 380 × 130; 32 slices; slice thickness = 750 μm; total imaging time = 22 min. Following MRI, the animal bed was transferred into the gantry of a microPET scanner (Focus 220, Siemens Medical Solutions, Knoxville, TN, USA), and a 10 min transmission scan using a ^57Co point source was recorded.
# (§4) After completion of the imaging procedure, a terminal blood sample was withdrawn under isoflurane anesthesia from the retro-orbital sinus vein, and the animals were sacrificed by cervical dislocation. Blood was centrifuged (17000g, 4 °C, 4 min) to obtain plasma, and whole brains were removed. […] The measured radioactivity data were corrected for radioactive decay and expressed as standardized uptake value ((radioactivity per g/injected radioactivity) × body weight). The remainder of the plasma samples was stored at −80 °C until measurement of tariquidar plasma concentrations using a previously described combined liquid chromatography tandem mass spectrometry (LC/MS) assay.[17]
# (§5) Images were reconstructed using Fourier rebinning of the 3D sonograms followed by two-dimensional filtered back projection with a ramp filter, resulting in an image voxel size of 0.4 × 0.4 × 0.796 mm^3. A standard data correction protocol (normalization, attenuation, and decay correction) was applied to the PET data. The PET units were converted into units of radioactivity concentration by applying a calibration factor derived from imaging of a cylindrical phantom with a known ^11C-radioactivity concentration. Using the image analysis software Amide,[31] whole brain was manually outlined on the PET images, and time–activity curves, expressed in standardized uptake value, were derived.
# (§6) Concentration–response relationships were analyzed by nonlinear regression analysis based on a sigmoidal model with variable slope using Prism 6 software.
# Abcb1a [4] = assay: as above
# Description: as §3, §4, §5, §6
# C57BL/6N mouse plasma = assay: Plasma protein binding (ultrafiltration) in mouse plasma; type: in vitro ADME
# Description: (§7) After incubation, plasma aliquots (200 μL) were transferred to the preconditioned Amicon filters, which were centrifuged (12000g, 30 min, 25 °C). Filters and tubes were separately measured in a gamma counter, and the obtained data were decay corrected. Percent plasma protein binding was calculated as percent radioactivity in the filter relative to total radioactivity (filter and tube).
# human plasma [5] = assay: Plasma protein binding (ultrafiltration) in human plasma; type: in vitro ADME; conditions: without tariquidar
# Description: as §7
# [6] = short anesthesia (5 min), tariquidar 15 mg/kg, 25 min after injection
# Description: (§8) In one cohort, all procedures were performed in isoflurane anesthetized (1.5–2% in oxygen) animals resulting in a total anesthesia length of 160 min (= long anesthesia). In the second cohort, pretreatment and radiotracer injection were performed in awake animals which were only shortly anesthetized prior to retro-orbital blood sampling, resulting in a total anesthesia length of 5 min (= short anesthesia). […] Blood was centrifuged to obtain plasma, and whole brains were removed. To plasma and homogenized brain tissue were added unlabeled verapamil (10 mg/mL in water, 100 μL) or N-desmethyl-loperamide (10 mg/mL in water/acetonitrile; 1/1, v/v, 100 μL), and proteins were precipitated by the addition of acetonitrile (1 μL per μL of plasma and 0.5 mL per brain). The homogenates were vortexed and then centrifuged (12000g, 5 min, 21 °C). Each supernatant (plasma, brain, 3 μL each) and diluted radiotracer solution as reference were spotted on thin-layer chromatography (TLC) plates (silica gel 60F 254 nm, 20 × 20 cm; Merck, Darmstadt, Germany), and plates were developed in ethyl acetate/triethylamine (9/1, v/v). Detection was performed by placing the TLC plates on multisensitive phosphor screens (PerkinElmer Life Sciences, Waltham, MA). The screens were scanned at 300 dpi resolution using a PerkinElmer Cyclone Plus Phosphor Imager (PerkinElmer Life Sciences).
# Abcb1a [7] = target: T1, Abcb1a; conditions: for Kp,brain,VPM or Kp,brain,dLOP fold increase, tariquidar vs vehicle: metabolite corrected; for Kp,brain for unchanged parent tracer (Kp,brain,VPM or Kp,brain,dLOP): 25 min, corrected for radiolabeled metabolites
# Description: as §8
# Abcb1a/1b = Abcb1a/1b (Mus musculus, UniProt P21447); conditions: for Kp,brain: wild-type FVB/N mice, 25 min after injection
# Description: Blood and brain were transferred to preweighed tubes and measured for radioactivity in a gamma counter. The measured radioactivity data were corrected for radioactive decay, and Kb,brain values were calculated.
# ABCB1 [8] = target: T2, ABCB1; conditions: cited from earlier work
# [9] = Tariquidar plasma concentration at the end of the PET scan (LC/MS); type: in vivo, mouse; conditions: 30 mg/kg iv
# ABCB1 [10] = system: ABCB1; parameters: method as in PMID 20016890; conditions: rats ref 35; read-out: in vivo IC50 of tariquidar for enhancement of brain distribution of (R)-[11C]verapamil; cited from earlier work
# human plasma [11] = system: human plasma; parameters: method as in PMID 23340958; conditions: human plasma ref 38; cited from earlier work
# ABCB1 [12] = target: T2, ABCB1; assay: cell-based; conditions: ABCB1-transfected LLC cells, normalized TR over 6 h, estimated by sigmoidal fit
# Sequence of Abcb1a/1b (P21447 whole entry): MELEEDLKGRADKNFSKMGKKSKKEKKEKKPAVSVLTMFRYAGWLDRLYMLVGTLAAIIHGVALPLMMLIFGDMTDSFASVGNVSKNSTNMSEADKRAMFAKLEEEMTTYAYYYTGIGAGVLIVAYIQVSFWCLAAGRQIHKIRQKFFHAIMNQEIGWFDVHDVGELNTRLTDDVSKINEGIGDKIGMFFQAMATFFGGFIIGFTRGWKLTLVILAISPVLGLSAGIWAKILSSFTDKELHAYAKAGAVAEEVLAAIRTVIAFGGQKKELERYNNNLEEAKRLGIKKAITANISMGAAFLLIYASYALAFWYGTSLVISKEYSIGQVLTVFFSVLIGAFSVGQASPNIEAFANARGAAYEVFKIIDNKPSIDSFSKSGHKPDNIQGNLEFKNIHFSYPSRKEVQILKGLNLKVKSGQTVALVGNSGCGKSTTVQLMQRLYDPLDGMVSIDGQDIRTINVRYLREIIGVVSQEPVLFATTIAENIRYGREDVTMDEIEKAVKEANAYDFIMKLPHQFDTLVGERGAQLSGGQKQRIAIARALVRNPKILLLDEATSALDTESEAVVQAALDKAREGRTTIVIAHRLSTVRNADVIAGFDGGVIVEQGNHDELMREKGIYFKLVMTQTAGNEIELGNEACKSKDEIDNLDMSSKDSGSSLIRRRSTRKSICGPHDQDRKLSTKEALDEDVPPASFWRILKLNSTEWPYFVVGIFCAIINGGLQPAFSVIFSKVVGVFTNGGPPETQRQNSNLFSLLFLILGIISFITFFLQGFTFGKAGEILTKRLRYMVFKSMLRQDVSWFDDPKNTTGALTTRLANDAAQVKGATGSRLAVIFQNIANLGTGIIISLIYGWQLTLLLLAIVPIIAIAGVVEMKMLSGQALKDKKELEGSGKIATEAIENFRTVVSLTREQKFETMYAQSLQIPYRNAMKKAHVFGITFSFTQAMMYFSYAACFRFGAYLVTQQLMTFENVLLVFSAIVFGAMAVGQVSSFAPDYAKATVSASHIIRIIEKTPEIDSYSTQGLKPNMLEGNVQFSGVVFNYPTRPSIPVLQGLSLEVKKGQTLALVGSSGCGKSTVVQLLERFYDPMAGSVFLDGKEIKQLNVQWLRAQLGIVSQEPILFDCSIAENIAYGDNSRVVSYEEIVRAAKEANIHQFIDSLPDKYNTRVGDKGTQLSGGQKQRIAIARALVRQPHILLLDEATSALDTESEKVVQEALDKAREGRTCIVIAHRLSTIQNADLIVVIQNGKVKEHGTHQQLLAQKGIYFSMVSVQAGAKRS
# T1 sequence (P21447 whole entry): as above
# T2 sequence (P08183 whole entry): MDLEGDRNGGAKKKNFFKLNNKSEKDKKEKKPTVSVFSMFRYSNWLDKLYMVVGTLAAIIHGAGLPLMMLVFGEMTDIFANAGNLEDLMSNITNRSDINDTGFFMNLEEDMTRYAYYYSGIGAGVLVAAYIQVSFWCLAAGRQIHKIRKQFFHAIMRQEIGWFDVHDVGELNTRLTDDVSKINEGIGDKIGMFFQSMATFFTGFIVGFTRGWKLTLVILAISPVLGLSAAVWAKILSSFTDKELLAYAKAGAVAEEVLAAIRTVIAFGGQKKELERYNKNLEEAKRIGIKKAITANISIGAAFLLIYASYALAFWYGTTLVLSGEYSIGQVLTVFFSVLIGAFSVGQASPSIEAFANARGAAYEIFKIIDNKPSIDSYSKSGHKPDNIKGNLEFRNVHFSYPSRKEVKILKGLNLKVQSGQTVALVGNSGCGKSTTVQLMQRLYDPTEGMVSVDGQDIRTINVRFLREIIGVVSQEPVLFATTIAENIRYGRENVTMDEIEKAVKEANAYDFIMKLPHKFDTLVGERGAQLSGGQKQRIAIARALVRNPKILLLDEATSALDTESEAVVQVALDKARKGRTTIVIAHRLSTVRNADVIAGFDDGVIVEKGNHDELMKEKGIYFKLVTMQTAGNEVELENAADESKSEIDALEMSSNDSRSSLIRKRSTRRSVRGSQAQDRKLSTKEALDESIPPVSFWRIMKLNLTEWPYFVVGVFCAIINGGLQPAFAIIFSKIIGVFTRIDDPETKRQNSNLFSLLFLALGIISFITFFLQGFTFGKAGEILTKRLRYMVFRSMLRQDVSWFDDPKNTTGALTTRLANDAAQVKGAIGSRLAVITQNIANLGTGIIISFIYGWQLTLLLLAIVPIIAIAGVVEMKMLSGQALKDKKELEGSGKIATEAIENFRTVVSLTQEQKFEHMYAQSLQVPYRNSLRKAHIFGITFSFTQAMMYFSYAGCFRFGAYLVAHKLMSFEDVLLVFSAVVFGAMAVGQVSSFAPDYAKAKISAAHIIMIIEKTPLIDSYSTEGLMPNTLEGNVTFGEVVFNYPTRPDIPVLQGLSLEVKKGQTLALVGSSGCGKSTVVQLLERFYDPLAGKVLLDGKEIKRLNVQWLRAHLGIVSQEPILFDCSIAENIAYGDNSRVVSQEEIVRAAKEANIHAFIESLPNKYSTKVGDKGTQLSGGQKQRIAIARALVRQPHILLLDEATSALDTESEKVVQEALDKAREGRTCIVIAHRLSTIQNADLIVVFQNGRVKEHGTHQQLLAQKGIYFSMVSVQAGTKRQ
structure (smiles),measurement,setting,value
[3H]C([3H])([3H])NC(=O)C(CCN1CCC(O)(c2ccc(Cl)cc2)CC1)(c1ccccc1)c1ccccc1 [[^3H]-N-desmethyl-loperamide],"transport ratio (TR), Papp(b–A)/Papp(a–B)","Abcb1a [1]; Abcb1a-transfected LLC cells, 5 nM substrate, without tariquidar",27.6 ± 6.5
same,TR relative to TR of [3H]verapamil,Abcb1a [1]; Abcb1a-transfected cells,8.6 times
same,transport ratio (TR),LLC wild-type cells,1.6 ± 0.03
same,"transport ratio (TR), Papp(b–A)/Papp(a–B)","ABCB1 [2]; ABCB1-transfected LLC cells, 5 nM substrate, without tariquidar",18.5 ± 1.7
same,TR relative to TR of [3H]verapamil,ABCB1 [2]; ABCB1-transfected cells,5 times
same,transport ratio relative to [3H]verapamil,ABCB1 [2]; in ABCB1- and Abcb1a-transfected cells (both cell types),5 to 9 times
CNC(=O)C(CCN1CCC(O)(c2ccc(Cl)cc2)CC1)(c1ccccc1)c1ccccc1 [[^11C]-N-desmethyl-loperamide],"brain-to-blood concentration ratio (Kb,brain)",Abcb1a [3]; heterozygous Abcb1a/1b(+/−) mice,1.54 ± 0.19
same,"increase in Kb,brain over vehicle treated wild-type mice","Abcb1a [3]; heterozygous Abcb1a/1b(+/−) mice, not significant",1.1 fold
same,"brain-to-blood concentration ratio (Kb,brain)","Abcb1a [3]; vehicle treated C57BL/6N wild-type mice, end of PET scan (50–60 min), total radioactivity",1.42 ± 0.16
same,"brain-to-blood concentration ratio (Kb,brain)",Abcb1a [3]; wild-type mice after 30 mg/kg tariquidar iv 2 h before PET,2.58 ± 0.44
same,blood radioactivity concentrations after tariquidar pretreatment compared to vehicle,"Abcb1a [4]; C57BL/6N wild-type mice, end of PET scan",increased
same,"increase in Kb,brain over vehicle treated wild-type mice",Abcb1a [4]; homozygous Abcb1a/1b(−/−) mice,2.8 fold
same,"brain-to-blood concentration ratio (Kb,brain)",Abcb1a [4]; vehicle treated homozygous Abcb1a/1b(−/−) mice,3.93 ± 0.36
same,percentage of non-protein bound radiotracer,C57BL/6N mouse plasma; with tariquidar (2400 nM),12.0 ± 1.0%
same,percentage of non-protein bound radiotracer,C57BL/6N mouse plasma; without tariquidar,14.5 ± 1.8%
same,percentage of non-protein bound radiotracer,human plasma [5],13.9 ± 0.7%
same,percentage of unchanged radiotracer in brain,[6],70 ± 11%
same,percentage of unchanged radiotracer in plasma,[6],18 ± 1%
same,percentage of unchanged radiotracer in plasma,[6]; listed as [^11C]-N-Desmethyl-loperamide,18 ± 1 ^d %
same,"Kb,brain fold increase, tariquidar vs vehicle",Abcb1a [7]; long anesthesia (160 min),4.0 fold
same,"Kp,brain fold increase, tariquidar vs vehicle",Abcb1a [7]; long anesthesia (160 min),3.7 fold
same,"Kp,brain,VPM or Kp,brain,dLOP fold increase, tariquidar vs vehicle",Abcb1a [7]; long anesthesia (160 min),18.3 fold
same,"Kp,brain for unchanged parent tracer (Kp,brain,VPM or Kp,brain,dLOP)","Abcb1a [7]; long anesthesia (160 min), tariquidar 15 mg/kg",7.34 ± 0.58
same,"Kp,brain for unchanged parent tracer (Kp,brain,VPM or Kp,brain,dLOP)","Abcb1a [7]; long anesthesia (160 min), vehicle",0.40 ± 0.16
same,"Kb,brain fold increase, tariquidar vs vehicle",Abcb1a [7]; short anesthesia (5 min),7.0 fold
same,"Kp,brain fold increase, tariquidar vs vehicle",Abcb1a [7]; short anesthesia (5 min),6.6 fold
same,"Kp,brain,VPM or Kp,brain,dLOP fold increase, tariquidar vs vehicle",Abcb1a [7]; short anesthesia (5 min),9.6 fold
same,"Kp,brain for unchanged parent tracer (Kp,brain,VPM or Kp,brain,dLOP)","Abcb1a [7]; short anesthesia (5 min), tariquidar 15 mg/kg",4.85 ± 0.29 ^b
same,"Kp,brain for unchanged parent tracer (Kp,brain,VPM or Kp,brain,dLOP)","Abcb1a [7]; short anesthesia (5 min), vehicle",0.51 ± 0.18
same,"Kb,brain fold increase, Abcb1a/1b(−/−) vs wild-type",Abcb1a/1b; awake,13.8 fold
same,"Kp,brain fold increase, Abcb1a/1b(−/−) vs wild-type",Abcb1a/1b; awake,13.7 fold
same,"Kp,brain",Abcb1a/1b; awake,0.20 ± 0.05
same,"Kb,brain fold increase, Abcb1a/1b(−/−) vs wild-type",Abcb1a/1b; isoflurane,5.7 fold
same,"Kp,brain fold increase, Abcb1a/1b(−/−) vs wild-type",Abcb1a/1b; isoflurane,6.0 fold
same,"Kp,brain",Abcb1a/1b; isoflurane,0.20 ± 0.04
same,increase in distribution to the human brain following administration of tariquidar,"ABCB1 [8]; humans, compared with PET scans without tariquidar ref 18-21",2 to 5 times
COc1cc2c(cc1OC)CN(CCc1ccc(NC(=O)c3cc(OC)c(OC)cc3NC(=O)c3cnc4ccccc4c3)cc1)CC2 [tariquidar],"Hill slope, inhibition of [3H]-N-desmethyl-loperamide transport",Abcb1a [1]; Abcb1a-transfected cells,1.3
same,"Hill slope, inhibition of [3H]verapamil transport",Abcb1a [1]; Abcb1a-transfected cells,2.6
same,IC50,"Abcb1a [1]; IC50 of tariquidar for inhibition of [3H]-N-desmethyl-loperamide transport, Abcb1a-transfected LLC cells",6 nM
same,IC50,"Abcb1a [1]; IC50 of tariquidar for inhibition of [3H]verapamil transport, Abcb1a-transfected LLC cells",17.9 nM
same,IC50,Abcb1a [3],1330 nM
same,"Hill slope, Kb,brain of (R)-[11C]verapamil vs tariquidar plasma concentration",Abcb1a [3]; C57BL/6N wild-type mice,2.98
same,"Hill slope, Kb,brain of [11C]-N-desmethyl-loperamide vs tariquidar plasma concentration",Abcb1a [3]; C57BL/6N wild-type mice,1.44
same,IC50,"Abcb1a [3]; in vivo IC50 of tariquidar (plasma concentration) for increase in Kb,brain of (R)-[11C]verapamil, C57BL/6N wild-type mice, normalized to Abcb1a/1b(−/−) mice",1050 nM
same,IC50,"Abcb1a [3]; unbound tariquidar in vivo IC50, (R)-[11C]verapamil, mice, in vivo IC50 corrected for plasma protein binding of tariquidar",6.6 nM
same,IC50,"Abcb1a [3]; unbound tariquidar in vivo IC50, [11C]-N-desmethyl-loperamide, mice, in vivo IC50 corrected for plasma protein binding of tariquidar",8.4 nM
same,tariquidar plasma concentration (mean ± SD),[9],3.508 ± 0.427 µM
same,tariquidar plasma concentration (range),[9],2802 to 3863 nM
same,"Hill slope, inhibition of [3H]-N-desmethyl-loperamide transport",ABCB1 [2]; ABCB1-transfected cells,2.1
same,"Hill slope, inhibition of [3H]verapamil transport",ABCB1 [2]; ABCB1-transfected cells,10.8
same,IC50,ABCB1 [10],650 nM
same,unbound fraction in human plasma,human plasma [11],0.0063
same,IC50,ABCB1 [12]; IC50 of tariquidar for inhibition of [3H]-N-desmethyl-loperamide transport,9 nM
same,IC50,ABCB1 [12]; IC50 of tariquidar for inhibition of [3H]verapamil transport,17.2 nM
same,IC50,"ABCB1 [8]; read-out: in vivo IC50 of tariquidar for enhancement of brain distribution of (R)-[11C]verapamil, humans ref 19",2250 nM
